# In patent publication US9839215B2, “Methods for increasing oil palm yield” (Valent BioSciences Corporation, priority 2015, dated 2017):
# Key:
# [1] = tested on: oil palms; test: Oil yield of oil palms after application before harvest of the fruit; type: in vivo, oil palm; details: applied before harvest of the fruit
# [2] = tested on: oil palm; test: Field study of cumulative loose fruit (CLF) and cumulative loose mass (CLM) after one-time bunch-directed spray; type: in vivo, oil palm (Compact×Ghana plants); details: one spray 100 mL/bunch; for Cumulative Loose Mass / % Difference with UTC (Cumulative Loose Fruit) / % Difference with UTC (Cumulative Loose Mass): 14 days; for % Difference with UTC (Cumulative Loose Fruit) / % Difference with UTC (Cumulative Loose Mass): positive = reduction; for Cumulative Loose Fruit: counted for 14 days
# Description: Plant Material: A field study was executed in a plantation in Costa Rica to compare the effects of one-time bunch-directed applications of: (1) water sprayed untreated control (UTC); (2) AVG-HCl at 500 ppm (59.5 g) active ingredient (a.i.); (3) AVG-HCl at 125 ppm (14.9 g) a.i.; (4) 200 ppm (0.2 g) a.i. of NAA; (5) AVG-HCl at 500 ppm (59.5 g) a.i. and 200 ppm (0.2 g) a.i. of NAA; and (6) AVG-HCl at 125 ppm (14.9 g) a.i. and 200 ppm (0.2 g) a.i. of NAA. In this study, AVG was provided in a formulation as AVG-HCl. NAA was provided as the sodium salt at concentrations of 20% and 3.5%. For each treatment, 24 palms per treatment were randomly selected covering about 15 hectares. The palms were Compact×Ghana plants and 2.5 to 3 years old. Treatment Application: A manual DEA-2000 sprayer was used to spray all treatments (100 mL/bunch) to bunches with 1 to 3 loose fruits. The time required to spray each bunch was about 11 to 20 seconds depending on the sprayer. Sprays were conducted only once per bunch. Twelve bunches were sprayed on Oct. 28, 2014 and the other 12 on Nov. 4, 2014. Cumulative loose fruit (CLF) and cumulative loose mass (CLM) counts were determined at daily basis with exception of Sundays for 14 days in order to objectively quantify fruit abscission. An electronic balance was used to weight out all fruit. All loose fruit on the bunch, branches and on the ground was counted and weighed.
# [3] = tested on: oil palm fruit; details: preharvest application to attached bunches of oil palm fruit; cited from earlier work
smiles,measurement,setting,value
C=C1C[C@]23C[C@@]1(O)CC[C@H]2[C@@]12C=C[C@H](O)[C@@](C)(C(=O)O1)[C@H]2[C@@H]3C(=O)O [gibberellic acid],oil yield of oil palms,[1],inconsistent and unsatisfactory oil yields
"NCCO/C=C/[C@H](N)C(=O)O (stereo in doubt) [AVG, [S]-trans-2-amino-4-(2-aminoethoxy)-3-butenoic acid]",Cumulative Loose Mass,[2]; AVG-HCl 125 ppm (14.9 g) a.i.,2028 g
same,% Difference with UTC (Cumulative Loose Fruit),[2]; AVG-HCl 125 ppm (14.9 g) a.i.,3.9%
same,% Difference with UTC (Cumulative Loose Mass),[2]; AVG-HCl 125 ppm (14.9 g) a.i.,−5.4%
same,Cumulative Loose Fruit,[2]; AVG-HCl 125 ppm (14.9 g) a.i.,160.7
same,Cumulative Loose Mass,[2]; AVG-HCl 500 ppm (59.5 g) a.i.,1154 g
same,% Difference with UTC (Cumulative Loose Fruit),[2]; AVG-HCl 500 ppm (59.5 g) a.i.,48.5%
same,% Difference with UTC (Cumulative Loose Mass),[2]; AVG-HCl 500 ppm (59.5 g) a.i.,40%
same,Cumulative Loose Fruit,[2]; AVG-HCl 500 ppm (59.5 g) a.i.,86.1
"O=C(O)Cc1cccc2ccccc12 [NAA, 1-naphthaleneacetic acid]",oil yield of oil palms,[1],increases the oil yield
same,Cumulative Loose Mass,[2]; NAA 200 ppm (0.2 g) a.i.,1501 g
same,% Difference with UTC (Cumulative Loose Fruit),[2]; NAA 200 ppm (0.2 g) a.i.,31.3%
same,% Difference with UTC (Cumulative Loose Mass),[2]; NAA 200 ppm (0.2 g) a.i.,22%
same,Cumulative Loose Fruit,[2]; NAA 200 ppm (0.2 g) a.i.,114.8
"O=P(O)(O)CCCl [ethephon, 2-chloroethyl phosphonic acid]",increase of oil content,[3],7%
